Laboratory results from patent US9422280B2, “N-substituted hetero-bicyclic compounds and derivatives for combating animal pests II” (BASF SE, priority 2012, dated 2016).

Legend:
Assay type in all cases: in vivo
[1] = system: Vetch Aphid (Megoura viciae); experiment: Vetch aphid broad bean leaf disk microtiter test; conditions: foliar, 120 h, sprayed broad bean leaf disks, 5 days, read-out: mortality in comparison with untreated controls
Method: B.4 Vetch Aphid (Megoura viciae)
For evaluating control of vetch aphid (Megoura viciae) through contact or systemic means the test unit consisted of 24-well-microtiter plates containing broad bean leaf disks.
The compounds were formulated using a solution containing 75% v/v water and 25% v/v DMSO. Different concentrations of formulated compounds were sprayed onto the leaf disks at 2.5 μl, using a custom built micro atomizer, at two replications.
After application, the leaf disks were air-dried and 5-8 adult aphids placed on the leaf disks inside the microtiter plate wells. The aphids were then allowed to suck on the treated leaf disks and incubated at about 23±1° C. and about 50±5% relative humidity for 5 days. Aphid mortality and fecundity was then visually assessed.

[2] = system: Cowpea Aphid (Aphis craccivora); experiment: Cowpea aphid spray test on potted cowpea plants; conditions: sprayed cowpea plants, population reduction assessed after 24, 72 and 120 hours, read-out: mortality in comparison with untreated controls
Method: B.3 Cowpea Aphid (Aphis craccivora)
The active compound is dissolved at the desired concentration in a mixture of 1:1 (vol:vol) distilled water:acetone. The test solution is prepared at the day of use.
Potted cowpea plants colonized with approximately 100-150 aphids of various stages were sprayed after the pest population has been recorded. Population reduction was assessed after 24, 72, and 120 hours.

[3] = system: Orchid Thrips (dichromothrips corbetti); experiment: Orchid thrips floral-immersion test; conditions: dipped orchid flowers, adult thrips, 72 hours after treatment, read-out: mortality in comparison with untreated controls
Method: B.7 Orchid Thrips (dichromothrips corbetti)
Dichromothrips corbetti adults used for bioassay were obtained from a colony maintained continuously under laboratory conditions. For testing purposes, the test compound is diluted in a 1:1 mixture of acetone:water (vol:vol), plus 0.01% vol/vol Alkamuls® EL 620 surfactant.
Thrips potency of each compound was evaluated by using a floral-immersion technique. Plastic petri dishes were used as test arenas. All petals of individual, intact orchid flowers were dipped into treatment solution and allowed to dry. Treated flowers were placed into individual petri dishes along with about 20 adult thrips. The petri dishes were then covered with lids. All test arenas were held under continuous light and a temperature of about 28° C. for duration of the assay. After 3 days, the numbers of live thrips were counted on each flower, and along inner walls of each petri dish. The percentmortality was recorded 72 hours after treatment.

[4] = system: Rice Green Leafhopper (Nephotettix virescens); experiment: Rice green leafhopper spray test on rice seedlings; conditions: sprayed rice seedlings, adults, after 72 hours, read-out: mortality in comparison with untreated controls
Method: B.8 Rice Green Leafhopper (Nephotettix virescens)
(§1) Rice seedlings were cleaned and washed 24 hours before spraying. The active compounds were formulated in 50:50 acetone:water (vol:vol), and 0.1% vol/vol surfactant (EL 620) was added. Potted rice seedlings were sprayed with 5 ml test solution, air dried, placed in cages and inoculated with 10 adults. Treated rice plants were kept at about 28-29° C. and relative humidity of about 50-60%. Percent mortality was recorded after 72 hours.

[5] = system: Cotton Aphid (Aphis gossypii); experiment: Cotton aphid cotyledon dip test; conditions: 120 h, cotton cotyledons dipped, mortality counts after 5 days, read-out: mortality in comparison with untreated controls
Description: B.2 Cotton Aphid (Aphis gossypii)
The active compounds were formulated in 50:50 (vol:vol) acetone:water and 100 ppm Kinetica™ surfactant.
Cotton plants at the cotyledon stage (one plant per pot) were infested by placing a heavily infested leaf from the main colony on top of each cotyledon. The aphids were allowed to transfer to the host plant overnight, and the leaf used to transfer the aphids was removed. The cotyledons were dipped in the test solution and allowed to dry. After 5 days, mortality counts were made.

[6] = system: Silverleaf Whitefly (bemisia argentifolii); experiment: Silverleaf whitefly spray test on cotton plants; conditions: 72 h, sprayed cotton plants, whitefly adults, 3 days after treatment, read-out: mortality in comparison with untreated controls
Description: B.5 Silverleaf Whitefly (bemisia argentifolii)
(§2) The active compounds were formulated in cyclohexanone as a 10,000 ppm solution supplied in tubes. The tubes were inserted into an automated electrostatic sprayer equipped with an atomizing nozzle and they served as stock solutions for which lower dilutions were made in 50% acetone:50% water (v/v). A nonionic surfactant (Kinetic®) was included in the solution at a volume of 0.01% (v/v).
Cotton plants at the cotyledon stage (one plant per pot) were sprayed by an automated electrostatic plant sprayer equipped with an atomizing spray nozzle. The plants were dried in the sprayer fume hood and then removed from the sprayer. Each pot was placed into a plastic cup and about 10 to 12 whitefly adults (approximately 3-5 days old) were introduced. The insects were collected using an aspirator and a nontoxic Tygon® tubing connected to a barrier pipette tip. The tip, containing the collected insects, was then gently inserted into the soil containing the treated plant, allowing insects to crawl out of the tip to reach the foliage for feeding. Cups were covered with a reusable screened lid. […] Mortality was assessed 3 days after treatment, compared to untreated control plants.

[7] = system: Rice Brown Plant Hopper (Nilaparvata lugens); experiment: Rice brown plant hopper spray test on rice seedlings; conditions: sprayed rice seedlings, adults, after 72 hours, read-out: mortality in comparison with untreated controls
Method: B.9 Rice Brown Plant Hopper (Nilaparvata lugens)
as §1, with “(vol:vol)” for “(vol:vol),”

[8] = system: Green Peach Aphid (Myzus persicae); experiment: Green peach aphid foliar spray test on bell pepper; conditions: 120 h, sprayed bell pepper plants, aphid mortality after 5 days, read-out: mortality in comparison with untreated controls
Description: B.1 Green Peach Aphid (Myzus persicae)
as §2
Bell pepper plants at the first true-leaf stage were infested prior to treatment by placing heavily infested leaves from the main colony on top of the treatment plants. Aphids were allowed to transfer overnight to accomplish an infestation of 30-50 aphids per plant and the host leaves were removed. The infested plants were then sprayed by an automated electrostatic plant sprayer equipped with an atomizing spray nozzle. The plants were dried in the sprayer fume hood, removed, and then maintained in a growth room under fluorescent lighting in a 24-hr photoperiod at about 25° C. and about 20-40% relative humidity. Aphid mortality on the treated plants, relative to mortality on untreated control plants, was determined after 5 days.

[9] = system: Boll Weevil (Anthonomus grandis); experiment: Boll weevil insect diet microtiter test; conditions: 120 h, sprayed onto insect diet with eggs, egg and larval mortality after 5 days, read-out: mortality in comparison with untreated controls
Method: B.6 Boll Weevil (Anthonomus grandis)
For evaluating control of boll weevil (Anthonomus grandis) the test unit consisted of 24-well-microtiter plates containing an insect diet and 20-30 A. grandis eggs.
The compounds were formulated using a solution containing 75% v/v water and 25% v/v DMSO. Different concentrations of formulated compounds were sprayed onto the insect diet at 20 μl, using a custom built micro atomizer, at two replications.
After application, microtiter plates were incubated at about 23±1° C. and about 50±5% relative humidity for 5 days. Egg and larval mortality was then visually assessed.

SMILES	mortality at 800 ppm [1]	mortality at 500 ppm [2]	mortality at 500 ppm [3]	mortality at 500 ppm [4]	mortality at 300 ppm [5]	mortality at 500 ppm [6]	mortality at 500 ppm [7]	mortality at 300 ppm [8]	mortality at 2500 ppm [9]
FC(F)(F)c1nc2cccn(Cc3ccc(Cl)nc3)c-2n1 [E1.15, 4-[(6-chloro-3-pyridyl)methyl]-2-(trifluoromethyl)imidazo[4,5-b]pyridine]	≥ 75%	≥ 75%	≥ 75%	≥ 75%	≥ 75%	≥ 75%	≥ 75%	–	–
CSc1nc2cccn(Cc3ccc(Cl)nc3)c-2n1 [E1.4, 4-[(6-chloro-3-pyridyl)methyl]-2-methylsulfanyl-imidazo[4,5-b]pyridine]	≥ 75%	≥ 75%	–	–	–	–	–	–	–
Clc1ccc(Cn2cccc3nc(Cl)nc2-3)cn1 [E1.8, 2-chloro-4-[(6-chloro-3-pyridyl)methyl]imidazo[4,5-b]pyridine]	≥ 75%	≥ 75%	≥ 75%	≥ 75%	≥ 75%	≥ 75%	≥ 75%	≥ 75%	> 75%
